Test results published in PMC10707737, “Indole Diterpene Derivatives from the Aspergillus flavus GZWMJZ-288, an Endophytic Fungus from Garcinia multiflora” (Molecules, 2023).
Entries after “also recorded” stand apart in the source; their conditions may differ.

Biological target: T1, NPC1L1 (Homo sapiens, UniProt Q9UHC9)
T1 sequence (Q9UHC9 22-1359): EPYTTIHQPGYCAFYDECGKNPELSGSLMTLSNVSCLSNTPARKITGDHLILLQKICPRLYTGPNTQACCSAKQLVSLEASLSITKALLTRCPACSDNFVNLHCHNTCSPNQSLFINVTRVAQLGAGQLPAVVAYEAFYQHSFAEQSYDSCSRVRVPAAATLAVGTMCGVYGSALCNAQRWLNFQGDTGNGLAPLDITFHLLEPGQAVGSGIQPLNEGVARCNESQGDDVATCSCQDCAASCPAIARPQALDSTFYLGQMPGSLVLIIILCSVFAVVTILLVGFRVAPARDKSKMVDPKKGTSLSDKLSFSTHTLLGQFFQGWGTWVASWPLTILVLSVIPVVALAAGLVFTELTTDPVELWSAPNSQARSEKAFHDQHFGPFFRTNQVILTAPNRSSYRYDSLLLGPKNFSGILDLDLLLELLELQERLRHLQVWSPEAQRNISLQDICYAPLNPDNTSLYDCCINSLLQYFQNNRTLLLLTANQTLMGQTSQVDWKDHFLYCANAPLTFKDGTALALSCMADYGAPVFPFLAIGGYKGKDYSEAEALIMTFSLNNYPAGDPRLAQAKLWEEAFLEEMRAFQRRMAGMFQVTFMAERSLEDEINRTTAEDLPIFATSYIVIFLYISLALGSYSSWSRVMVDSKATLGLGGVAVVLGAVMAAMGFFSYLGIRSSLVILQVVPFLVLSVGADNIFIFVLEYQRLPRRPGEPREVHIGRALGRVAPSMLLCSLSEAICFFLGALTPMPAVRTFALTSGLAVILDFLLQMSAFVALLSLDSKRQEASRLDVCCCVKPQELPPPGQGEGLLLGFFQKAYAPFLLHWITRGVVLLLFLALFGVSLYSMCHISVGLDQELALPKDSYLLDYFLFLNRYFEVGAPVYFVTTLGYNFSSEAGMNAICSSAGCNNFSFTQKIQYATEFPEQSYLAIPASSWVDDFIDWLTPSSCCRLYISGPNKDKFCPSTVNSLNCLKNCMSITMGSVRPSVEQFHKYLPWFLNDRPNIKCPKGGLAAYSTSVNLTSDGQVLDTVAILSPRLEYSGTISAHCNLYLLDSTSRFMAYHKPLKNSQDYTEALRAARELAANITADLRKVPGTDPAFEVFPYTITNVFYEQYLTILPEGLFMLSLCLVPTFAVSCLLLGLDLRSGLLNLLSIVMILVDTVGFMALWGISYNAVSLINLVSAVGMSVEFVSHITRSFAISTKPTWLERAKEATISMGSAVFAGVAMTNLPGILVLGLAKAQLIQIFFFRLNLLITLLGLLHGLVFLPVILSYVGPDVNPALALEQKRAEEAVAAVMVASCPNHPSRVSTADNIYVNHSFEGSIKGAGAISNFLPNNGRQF
Test: Combining ability test with NPC1L1 (SPR, Biacore)
Format: binding
Conditions: fixed concentration 10 μM; ezetimibe positive control
Experimental: NPC1L1 is currently considered to be the key protein for cholesterol absorption. It is impossible to evaluate the activity of targeting compounds on NPC1L1 through colorimetry assay due to NPC1L1′s lack of catalytic activity. The experiment was carried out under fixed concentration at 10 μM with ezetimibe as a positive control. Excess reactive esters on the sensor chip surface were blocked with 1 M ethanolamine (pH 8.5) for 7 min. The flow cell used for reference was activated and blocked as described above but remained uncoupled. Binding is typically reported in response units (RUs), which is defined as the response obtained from the flow cell containing the immobilized receptor minus the response obtained from the reference flow cell. CM5 series sensor chips and coupling reagents EDC and NHS were purchased from GE. The surface of the flow cell was activated for 7 min using a 1:1 mixture of 100 mM EDC and 100 mM NHS at a flow rate of 10 μL/mi. Subsequently, the corresponding proteins were injected over the surface for 7 min using the time and flow method (final immobilization level: 15,000 RU). Excess reactive esters on the sensor chip surface were blocked with 1 M ethanolamine (pH 8.5) for 7 min. The ability of compounds to combine with NPC1L1 protein was determined by the response value.

| SMILES | binding ability with NPC1L1 (SPR response) |
| --- | --- |
| CC(C)C1=C(c2c[nH]c3ccccc23)[C@@H]2[C@H](C)CC[C@@]3(C)[C@H](C)CC[C@H](O)C23CC1 (stereo partly drawn) [Compound 6, aflavinine] | could bind well with NPC1L1; also recorded: stronger than that of ezetimibe; also recorded: stronger binding ability with NPC1L1 than ezetimibe |
| CC(=O)OCC(C)C1=C(c2c[nH]c3ccccc23)C2C(C)CC(O)C3(C)C(C)CCC(O)C23CC1 (stereo not drawn) [Compound 1, 26-dihydroxyaflavininyl acetate] | could bind well with NPC1L1; also recorded: comparable binding ability with NPC1L1 |
| C=C(C)C1CCC23[C@H](C1c1c[nH]c4ccccc14)[C@H](C)C[C@@H](O)[C@@]2(C)[C@H](C)CC[C@@H]3O (stereo partly drawn) [Compound 4, 14-eoi-14-hydroxy10,23-dihydro-24,25-dehydroaflavinine] | could bind well with NPC1L1; also recorded: comparable binding ability with NPC1L1 |
